This note sets out measurements from PubChem BioAssay AID330 (DTP/NCI, 2004).

Structures are written as SMILES. “And” between values parts separate entries of the source, which are not always exact repeats. Equal values may be shown once. Toxic doses and inconclusive results are not listed. Square brackets hold non-standard residues; d marks the D form. Peptide text beside a SMILES is read from it. ξ: configuration not given here. ξE = NC(CCC(=O)O)C(=O)O

The subject of the assay is P388 leukemia ip, CD2F1 mice, survival T/C. As to the kind of experiment: NCI In Vivo Anticancer Drug Screen. Data for tumor model P388 Leukemia (intraperitoneal) in CD2F1 (CDF1) mice. As to conditions: endpoint: median survival time, higher = longer survival. The method in brief:
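Mice carrying the transplanted tumor received test compound or vehicle. Survival was recorded in each group, and the value is the treated-group measurement divided by that of the vehicle-treated control group.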

Where [1] appears, read: dose: 50.0 mg/kg/injection, schedule: Q01DX005 (ip), vehicle: Klucel (hydroxypropylcellulose) (HPC).
Where [2] appears, read: dose: 50.0 mg/kg/injection, schedule: Q01DX009 (ip), vehicle: Klucel (hydroxypropylcellulose) (HPC).
The mark [3] stands for this setting: dose: 50.0 mg/kg/injection, schedule: Q01DX009 (ip), vehicle: saline with Tween-80.
[4] abbreviates: dose: 100.0 mg/kg/injection, schedule: Q01DX005 (ip), vehicle: Klucel (hydroxypropylcellulose) (HPC).
Where [5] appears, read: dose: 100.0 mg/kg/injection, schedule: Q01DX009 (ip), vehicle: Klucel (hydroxypropylcellulose) (HPC).
The mark [6] stands for this setting: dose: 100.0 mg/kg/injection, schedule: Q01DX009 (ip), vehicle: saline with Tween-80.
[7] abbreviates: dose: 200.0 mg/kg/injection, schedule: Q01DX005 (ip), vehicle: Klucel (hydroxypropylcellulose) (HPC).
The mark [8] stands for this setting: dose: 200.0 mg/kg/injection, schedule: Q01DX009 (ip), vehicle: saline with Tween-80.
Where [9] appears, read: dose: 50.0 mg/kg/injection, schedule: Q01DX001 (ip), vehicle: Klucel (hydroxypropylcellulose) (HPC).
The mark [10] stands for this setting: dose: 200.0 mg/kg/injection, schedule: Q01DX009 (ip), vehicle: Klucel (hydroxypropylcellulose) (HPC).
[11] abbreviates: dose: 25.0 mg/kg/injection, schedule: Q01DX009 (ip), vehicle: saline with Tween-80.
[12] abbreviates: dose: 50.0 mg/kg/injection, schedule: Q01DX009 (ip), vehicle: saline.
Setting [13] is: dose: 100.0 mg/kg/injection, schedule: Q01DX009 (ip), vehicle: saline.

As for `CCN(CC)Cc1c2c(O)c3c(O)c(C)c4c(c3c1O)C(=O)C(C)(O/C=C/C(OC)C(C)C(OC(C)=O)C(C)C(O)C(C)C(O)C(C)/C=C/C=C(\C)C(=O)N2)O4` (configuration not stated), the T/C reads like this: (dose: 12.5 mg/kg/injection, schedule: Q01DX009 (ip), vehicle: Klucel (hydroxypropylcellulose) (HPC)) 115 % of control; (dose: 25.0 mg/kg/injection, schedule: Q01DX009 (ip), vehicle: Klucel (hydroxypropylcellulose) (HPC)) 93 % of control; under setting [1], 103 % of control; under setting [2], 91 % of control; under setting [3], 110 % of control; under setting [4], 106 % of control. In addition, the T/C runs as follows: under setting [5], 86 % of control; under setting [6], 90 % of control; under setting [7], 94 % of control; under setting [8], 97 % of control; (dose: 400.0 mg/kg/injection, schedule: Q01DX009 (ip), vehicle: Klucel (hydroxypropylcellulose) (HPC)) 111 % of control.

For the compound `CC1C2c3ccccc3C(c3ccccc32)C1CO` (configuration not stated), the T/C was 92 % of control (dose: 50.0 mg/kg/injection, schedule: Q01DX005 (ip), vehicle: saline with Tween-80); 91 % of control (dose: 100.0 mg/kg/injection, schedule: Q01DX005 (ip), vehicle: saline with Tween-80); 90 % of control (dose: 200.0 mg/kg/injection, schedule: Q01DX005 (ip), vehicle: saline with Tween-80).

On to `N#CC1CCCC(CCc2ccccc2)(c2ccccc2)C1=N` (configuration not stated), for which the T/C by setting is: under setting [9], 100 % of control; (dose: 100.0 mg/kg/injection, schedule: Q01DX001 (ip), vehicle: Klucel (hydroxypropylcellulose) (HPC)) 99 % of control and 101 % of control; (dose: 200.0 mg/kg/injection, schedule: Q01DX001 (ip), vehicle: Klucel (hydroxypropylcellulose) (HPC)) 91 % of control; (dose: 400.0 mg/kg/injection, schedule: Q01DX001 (ip), vehicle: Klucel (hydroxypropylcellulose) (HPC)) 102 % of control and 92 % of control.

In the case of `O=C(OC1CSC=CSC1)c1ccccc1`, the T/C by setting is: under setting [2], 104 % of control; under setting [5], 109 % of control; under setting [10], 110 % of control.

`CCCCCCCCCCCCCCCCCC[N+]1(CCCC)CCOCC1`: the T/C (dose: 12.5 mg/kg/injection, schedule: Q01DX009 (ip), vehicle: saline with Tween-80) is 102 % of control; the T/C under setting [11] was 108 % of control; the T/C under setting [3] is 101 % of control and 114 % of control.

`O=C(N/N=C\c1ccc(O)cc1)C(=O)N/N=C\c1ccc(O)cc1`: the T/C under setting [12] is 87 % of control; the T/C under setting [13] is 92 % of control; the T/C (dose: 200.0 mg/kg/injection, schedule: Q01DX009 (ip), vehicle: saline) was 96 % of control.

In the case of `CCCCCCCCCCCCN1C(C)=CS/C1=C\C=C\c1scc(C)[n+]1CCCCCCCCCCCC`, the T/C was 110 % of control (dose: 0.75 mg/kg/injection, schedule: Q01DX005 (ip), vehicle: saline with Tween-80); 119 % of control (dose: 3.0 mg/kg/injection, schedule: Q01DX005 (ip), vehicle: saline with Tween-80); 150 % of control (dose: 3.12 mg/kg/injection, schedule: Q04DX002 (ip), vehicle: saline with Tween-80); 150 % of control and 157 % of control (dose: 6.25 mg/kg/injection, schedule: Q04DX002 (ip), vehicle: saline with Tween-80); 160 % of control and 163 % of control (dose: 12.5 mg/kg/injection, schedule: Q04DX002 (ip), vehicle: saline with Tween-80).

As to `CNC(=O)c1cc([N+](=O)[O-])cnc1NC`, the T/C is 95 % of control under setting [2], 98 % of control under setting [5] and 92 % of control under setting [10].

As for `COC(=O)c1nnn(-c2ccc(S(N)(=O)=O)cc2)c1N`, the T/C was 98 % of control (dose: 60.0 mg/kg/injection, schedule: Q01DX005 (ip), vehicle: saline); 104 % of control (dose: 120.0 mg/kg/injection, schedule: Q01DX005 (ip), vehicle: saline); 98 % of control (dose: 240.0 mg/kg/injection, schedule: Q01DX005 (ip), vehicle: saline).

On to `O=C1CC(SC(=S)N2CCCCC2)C(=O)N1c1ccccc1` (configuration not stated), for which the T/C reads like this: (dose: 100.0 mg/kg/injection, schedule: Q04DX002 (ip), vehicle: saline) 105 % of control and 98 % of control; (dose: 200.0 mg/kg/injection, schedule: Q04DX002 (ip), vehicle: saline) 100 % of control and 109 % of control; (dose: 400.0 mg/kg/injection, schedule: Q04DX002 (ip), vehicle: saline) 100 % of control and 104 % of control.

On to `CCN(CC)C(CC(=O)C(C)(C)C)=NCCCN1CCN(C)CC1`, for which the T/C is 98 % of control under setting [12] and 100 % of control under setting [13].

`C/C(=N\N=C(/N)N1CCCC1)c1ccc2c(c1)Cc1cc(/C(C)=N/N=C(\N)N3CCCC3)ccc1-2`: the T/C was 98 % of control (dose: 25.0 mg/kg/injection, schedule: Q04DX002 (ip), vehicle: saline with Tween-80) and 98 % of control (dose: 50.0 mg/kg/injection, schedule: Q04DX002 (ip), vehicle: saline with Tween-80).

Consider `CC(Nc1ccccc1)C(=Nc1ccccc1)Nc1ccccc1` (configuration not stated), for which the T/C by setting is: under setting [1], 110 % of control; under setting [4], 113 % of control; under setting [7], 113 % of control.

In the case of `NCC(=O)NCC(=O)NC(CCC(=O)O)C(=O)O` (stereo not drawn) (H-Gly-Gly-[ξE]-OH), the T/C was 100 % of control (dose: 50.0 mg/kg/injection, schedule: Q01DX005 (ip), vehicle: saline); 101 % of control (dose: 100.0 mg/kg/injection, schedule: Q01DX005 (ip), vehicle: saline); 104 % of control (dose: 200.0 mg/kg/injection, schedule: Q01DX005 (ip), vehicle: saline).

`OC1(c2ccccc2)C(c2ccccc2)=C(c2ccccc2)C(c2ccc(CCc3ccc(C4=C(c5ccccc5)C(O)(c5ccccc5)C(c5ccccc5)=C4c4ccccc4)cc3)cc2)=C1c1ccccc1` (configuration not stated): the T/C reads like this: (dose: 6.25 mg/kg/injection, schedule: Q01DX001 (ip), vehicle: Klucel (hydroxypropylcellulose) (HPC)) 105 % of control; (dose: 12.5 mg/kg/injection, schedule: Q01DX001 (ip), vehicle: Klucel (hydroxypropylcellulose) (HPC)) 111 % of control; (dose: 25.0 mg/kg/injection, schedule: Q01DX001 (ip), vehicle: Klucel (hydroxypropylcellulose) (HPC)) 90 % of control; under setting [9], 94 % of control.

With `CCC1(CC)C(=O)N(C(C)=O)C2(C)C(=O)NC(=O)N2C1=O` (configuration not stated), the T/C is 100 % of control (dose: 100.0 mg/kg/injection, schedule: Q01DX001 (ip), vehicle: saline); 100 % of control (dose: 200.0 mg/kg/injection, schedule: Q01DX001 (ip), vehicle: saline); 101 % of control (dose: 400.0 mg/kg/injection, schedule: Q01DX001 (ip), vehicle: saline).

For `CSc1nc(NC2OCC(O)C(O)C2O)c(C=O)c(=O)[nH]1` (configuration not stated), the T/C is, setting by setting: (dose: 15.0 mg/kg/injection, schedule: Q01DX005 (ip), vehicle: saline with Tween-80) 97 % of control; (dose: 30.0 mg/kg/injection, schedule: Q01DX005 (ip), vehicle: saline with Tween-80) 109 % of control; (dose: 60.0 mg/kg/injection, schedule: Q01DX005 (ip), vehicle: saline with Tween-80) 95 % of control.

For `C#CCOc1ccc(C)cc1`, the T/C is, setting by setting: under setting [11], 108 % of control; under setting [3], 108 % of control; under setting [6], 113 % of control.

Turning to `CCN1CCC(=O)C1`, the T/C runs as follows: (dose: 50.0 mg/kg/injection, schedule: Q04DX003 (ip), vehicle: saline with Tween-80) 104 % of control; (dose: 100.0 mg/kg/injection, schedule: Q04DX003 (ip), vehicle: saline with Tween-80) 105 % of control; (dose: 200.0 mg/kg/injection, schedule: Q04DX003 (ip), vehicle: saline with Tween-80) 105 % of control.

As for `CC(C)CC(NC(=O)CCl)C(=O)O` (configuration not stated), the T/C is 108 % of control under setting [11]; 108 % of control and 110 % of control under setting [3]; 106 % of control and 113 % of control under setting [6]; 96 % of control under setting [8]; 108 % of control (dose: 400.0 mg/kg/injection, schedule: Q01DX009 (ip), vehicle: saline with Tween-80).

Turning to `CC(=O)N(C(C)=O)N1C(=O)C2C3C=CC(C4CC34)C2C1=O` (configuration not stated), the T/C is, setting by setting: under setting [2], 92 % of control; under setting [5], 94 % of control.

Regarding `CC(c1ccccc1)c1cc(C(C)(C)C)cc(C(C)(C)C)c1O` (configuration not stated), the T/C reads like this: (dose: 50.0 mg/kg/injection, schedule: Q01DX005 (ip), vehicle: distilled water + alcohol) 96 % of control; (dose: 100.0 mg/kg/injection, schedule: Q01DX005 (ip), vehicle: distilled water + alcohol) 100 % of control; (dose: 200.0 mg/kg/injection, schedule: Q01DX005 (ip), vehicle: distilled water + alcohol) 99 % of control.
